For data set [1], the system named is cerebral ischemia. As to the kind of experiment: Transient focal cerebral ischemia in rats (2 h clamp of left middle cerebral artery plus carotid ligation, then reperfusion), Studies 1-3. The data set is classed as in vivo, rat (male Sprague Dawley). Particulars: for reduction of the cortical lesion: vs control group; for CORTICAL LESION: mean ± S.E.M. As for the experimental part:
Male Sprague Dawley rats (230-250 g Iffa Credo) are fed and watered ad libitum and kept in a light-dark cycle of 12 hours. Surgery was carried out under halothane (1.4% in a mixture of 70% N2O/30% O2). During anesthesia, normothermia is maintained by placing the rat under a thermostated cover. The left common carotid artery is isolated and a loose ligature is put in place. The left middle cerebral artery is exposed via a subtemporal craniotomy and a microclamp is placed in the proximal region of the artery, immediately followed by the ligation of the carotid artery. Two hours later, the animals are reanesthetized and the cerebral circulation is reestablished by removing the clamp from the middle cerebral artery and the ligature from the carotid artery. The rats are then placed in their cage in a thermostated room at 26-28° C. 48 hours after the surgery, a neurological examination is carried out for each rat by an examiner unaware of the treatment. The neurological scale used is described in Table 1. [table] After the neurological examination, the rats are humanely killed and their brains removed. 1.5 mm thick serial sections are prepared and stained with 2,3,5-triphenyltetrazolium chloride (TTC) at 2%. After 24 hours of post-fixing in a 10% formaldehyde solution, the lesion areas (cerebral infarct) are measured at the cortical and striatal levels; the volumes are calculated by integrating the lesioned surface areas. The values are expressed in mm^3 (mean ±S.E.M). Statistical analysis was carried out by a Mann-Whitney test or by a Kruskal-Wallis test for non-parametric variance analysis followed by a Dunn test for comparison between groups (*:p<0.05, **:p<0.01, ***:p<0.001 vs control group). In Study 1, enoxaparin is administered to 12 rats at 1.5 mg/kg iv, 2 hours and 24 hours after the onset of the ischemia. A control group of 10 rats receives only the vehicle (physiological solution of sodium chloride at 0.9%) following the same protocol. In Study 2, the therapeutic window of opportunity for enoxaparin is explored. The treatment starts 5 hours after the ischemia followed by a second administration at 24 hours. This study consists in an enoxaparin dose-effect on the cerebral lesions. The doses studied are 0.5:1 and 1.5 mg/kg iv (9-10 rats per group). A control group of 11 rats receives only the vehicle (physiological solution of sodium chloride at 0.9%). In Study 3, enoxaparin is administered to 10 rats at 1.5 mg/kg iv, 5 and 24 hours after the onset of the ischemia. The control group of 13 rats receives only the vehicle (physiological solution of sodium chloride at 0.9%).

In data set [2] the test system is cerebral ischemia. Kind of data set: Permanent focal cerebral ischemia in rats (left middle cerebral artery permanently cauterized, no carotid occlusion), Study 4. The data set is classed as in vivo, rat (male Sprague Dawley). The conditions noted are these: Study 4 (permanent occlusion), 2 × 1.5 mg/kg iv.

Marks after values point to notes of the source that are not given here.

On to Enoxaparin, for which the “reduction of the cortical lesion” value worked out at 30% in the data set on cerebral ischemia [1] (Study 1, 2 × 1.5 mg/kg iv, 2 h and 24 h); 30% with cerebral ischemia [1] (Study 2, 2×1 mg/kg iv, 5 h and 24 h); 36% in the data set with cerebral ischemia [1] (Study 2, 2×1.5 mg/kg iv, 5 h and 24 h); 34% in the data set on cerebral ischemia [1] (Study 3, 2 × 1.5 mg/kg iv, 5 h and 24 h); 49% in the data set with cerebral ischemia [2] (5 h and 24 h, vs control group). The “CORTICAL LESION” value with cerebral ischemia [1] (Study 1, 2 × 1.5 mg/kg iv, 2 h and 24 h after onset of ischemia, measured 48 h after surgery) is reported as 131 ± 13* mm^3; in the data set on cerebral ischemia [1] (Study 2, 2 × 0.5 mg/kg iv, 5 h and 24 h after ischemia), 164 ± 15 mm^3; in the data set with cerebral ischemia [1] (Study 2, 2 × 1 mg/kg iv, 5 h and 24 h after ischemia) it was 142 ± 24* mm^3; in the data set on cerebral ischemia [1] (Study 2, 2 × 1.5 mg/kg iv, 5 h and 24 h after ischemia), 129 ± 17* mm^3; in the data set with cerebral ischemia [1] (Study 3, 2 × 1.5 mg/kg iv, 5 h and 24 h after onset of ischemia), 129 ± 16** mm^3; in the data set on cerebral ischemia [2] (5 h and 24 h after onset of ischemia, mean ± S.E.M.), 71 ± 13* mm^3. Besides, in the data set on cerebral ischemia [1] (during Studies 1-4, 0.5-1.5 mg/kg iv, two administrations), the bleeding entry is “No problem of bleeding was encountered”.

The values are drawn from patent US20040214796A1, “Novel therapeutic application of enoxaparin” (AVENTIS PHARMA S.A., priority 2000, published 2004).
